According to patent publication US20230406865A1, “CRYSTAL FORM OF FREE BASE OF INHIBITOR CONTAINING BICYCLIC RING DERIVATIVE AND PREPARATION METHOD AND APPLICATION OF CRYSTAL FORM” (SHANGHAI HANSOH BIOMEDICAL CO., LTD., priority 2020, published 2023):

Tests used:
[1] = molecular target: T1, RET M918T (Homo sapiens, UniProt P07949, M918T); assay: HTRF kinase activity inhibition, RET M918T; format: biochemical; conditions: ATP at Km
T1 construct: purchased Carna 08-508
Text: (§1) 2.2 Experimental Reagents: • RET enzyme was purchased from Carna Company, and the article number was 08-159; • RET M918T enzyme was purchased from Carna Company, and the article number was 08-508; • KIF5B-RET was purchased from SignalChem Company, the article number was R02-19FG-05; • CCDC6-RET was purchased from SignalChem Company, the article number was R02-19BG-05; • RET V804M enzyme was purchased from Thermofisher Company, and the article number was PV6223; • RET V804L enzyme was purchased from Thermofisher Company, and the article number was PV4397; • HTRF KinEASE-TK kit was purchased from Cisbio Company, and the article number was 62TK0PEC; • ATP was purchased from Thermofisher Company, and the article number was PV3227; • 384-well plate was purchased from PerkinElmer Company, and the article number was 6007290.
(§2) In this experiment, a homogeneous time-resolved fluorescence (HTRF) method was used for the detection of compounds on RET kinase activity.

[2] = molecular target: T2, CCDC6-RET (Homo sapiens, UniProt P07949); assay: HTRF kinase activity inhibition, CCDC6-RET; format: biochemical; conditions: ATP at Km
T2 construct: purchased SignalChem R02-19BG-05; the other entry of the earlier key: CCDC6 (Q16204, Coiled-coil domain-containing protein 6)
T2 sequence (P07949 with tags, fused parts or gaps): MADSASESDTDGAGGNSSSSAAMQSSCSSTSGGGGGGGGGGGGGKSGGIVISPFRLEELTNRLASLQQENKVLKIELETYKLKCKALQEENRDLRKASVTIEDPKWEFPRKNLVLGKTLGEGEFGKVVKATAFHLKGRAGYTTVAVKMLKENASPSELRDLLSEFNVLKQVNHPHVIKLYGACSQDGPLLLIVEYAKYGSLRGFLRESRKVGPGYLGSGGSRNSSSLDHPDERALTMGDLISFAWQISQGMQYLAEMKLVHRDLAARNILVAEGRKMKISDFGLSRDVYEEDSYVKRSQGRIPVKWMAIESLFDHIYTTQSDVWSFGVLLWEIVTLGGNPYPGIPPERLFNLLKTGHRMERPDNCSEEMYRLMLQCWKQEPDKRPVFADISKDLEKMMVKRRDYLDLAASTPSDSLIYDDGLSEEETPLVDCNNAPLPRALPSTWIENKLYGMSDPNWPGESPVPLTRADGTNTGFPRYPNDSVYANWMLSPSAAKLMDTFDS
Text: as §1, §2

[3] = tested on: phosphorylation of ERK, a downstream signal factor of TT cells; assay: Inhibition of ERK phosphorylation in TT cells (Western Blot); format: cell-based, human; conditions: for inhibition of ERK phosphorylation: 2 hours, TT cells; for inhibition of phosphorylation level of ERK in TT cells: 3.7-300 nM, 2 hours at 37° C., Western Blot
Text: 2.2 Experimental Reagents: • pERK antibody was purchased from Cell Signaling Technology Company, the article number was 43705; • Total ERK antibody was purchased from Cell Signaling Technology Company, the article number was 4696S; • The internal reference GAPDH was purchased from Cell Signaling Technology Company, the article number was 51745; • The fluorescent secondary antibodies were purchased from LI-COR Company, the article numbers were P/N 925-68071 and P/N 926-32210.
In this experiment, the inhibitory effect of compounds on the phosphorylation level of ERK, a downstream signaling factor in TT cells was measured by Western Blot method. When TT cells were cultured to the appropriate fusion level, the cells were collected and adjusted to the appropriate cell concentration using complete medium, the cell suspension was spread in a 24-well plate, 1 mL per well, and placed in the wall of a 37° C., 5% CO2 incubator overnight, and compound dilutions of different concentrations (3.7 nM, 11.1 nM, 33.3 nM, 100 nM, 300 nM) were added at 37° C. and acted for 2 hours; the cell supernatant was aspirated, washed one time with PBS, and the proteins were collected with lysate; after protein denaturation, Western blot experiments were performed: performing protein electrophoresis at 120V for approximately 75 minutes, followed by 45 minutes of transfer to PVDF membranes at 10V with a semi-dry transfer instrument, enclosing at 5% BSA for 1 hour at room temperature, and then PVDF membranes were cut into strips of appropriate size and incubated with prepared antibody dilutions overnight at 4° C. and washed 6 times with TBST, followed by incubating with goat anti-mouse secondary antibody and goat anti-rabbit secondary antibody for 1 hour at room temperature, and the membrane was washed 6 times with TBST for imaging in the Biorad ChemiDoc™ MP Imaging System.
The inhibitory effect of compounds on ERK phosphorylation levels in TT cells at different concentrations was determined by detecting protein bands.

[4] = tested on: xenograft tumor of human myeloid thyroid cancer cell TT; assay: Subcutaneous xenograft tumor model of human myeloid thyroid cancer cell TT; format: in vivo, BALB/c nude mice
Protocol: BALB/c nude mice, female, 6-8 weeks old, weighing 18-22 g, provided by Shanghai Lingchang Biotechnology Co., Ltd.
TT cells were cultured in vitro in a monolayer under the following conditions: F-12K medium with 20% heat-inactivated fetal bovine serum and 1% penicillin-streptomycin double antibodies at 37° C. and 5% CO2. Digestion with trypsin-EDTA was performed to treat the passage twice a week. When cells were in an exponential growth period, cells were collected, counted and inoculated.
TT cells were collected when they were full in a logarithmic growth period, ensuring vitality over 90%. 0.2 mL of cell suspension containing about 1×10^7 of TT cells (cells suspended in basic F-12K medium and added with 50% Matrigel) was inoculated subcutaneously into the right back […] of each mouse when the mean volume of the tumor reached about 150-200 mm^3 to start group administration.
1. The day of grouping was day 0 (DO). The interval of BID administration was 6-8 h/18-16 h. The first administration was given in the afternoon of day DO and the last administration was given in the morning of day D21.
2. Administration volume: 10 μL/g according to the body weight of nude mice.
Animal grouping: animals were weighed before administration and the tumor volume was measured. Animals were randomly grouped according to tumor volume (randomized grouping design) with 5 animals per group.
Experimental index: the diameter of tumor was measured by vernier caliper twice a week. The tumor volume was calculated by the formula: V=a×b^2/2, a and b denote the long and short diameter of the tumor, respectively. The tumor inhibition efficacy of the compounds was evaluated by TGI (%). TGI (%)=(1-(TVTreatment/Dx−TVTreatment/D1)/(TVControl/Dx−TVControl/D1))×100%.

T1 sequence (P07949 29-1114 M918T): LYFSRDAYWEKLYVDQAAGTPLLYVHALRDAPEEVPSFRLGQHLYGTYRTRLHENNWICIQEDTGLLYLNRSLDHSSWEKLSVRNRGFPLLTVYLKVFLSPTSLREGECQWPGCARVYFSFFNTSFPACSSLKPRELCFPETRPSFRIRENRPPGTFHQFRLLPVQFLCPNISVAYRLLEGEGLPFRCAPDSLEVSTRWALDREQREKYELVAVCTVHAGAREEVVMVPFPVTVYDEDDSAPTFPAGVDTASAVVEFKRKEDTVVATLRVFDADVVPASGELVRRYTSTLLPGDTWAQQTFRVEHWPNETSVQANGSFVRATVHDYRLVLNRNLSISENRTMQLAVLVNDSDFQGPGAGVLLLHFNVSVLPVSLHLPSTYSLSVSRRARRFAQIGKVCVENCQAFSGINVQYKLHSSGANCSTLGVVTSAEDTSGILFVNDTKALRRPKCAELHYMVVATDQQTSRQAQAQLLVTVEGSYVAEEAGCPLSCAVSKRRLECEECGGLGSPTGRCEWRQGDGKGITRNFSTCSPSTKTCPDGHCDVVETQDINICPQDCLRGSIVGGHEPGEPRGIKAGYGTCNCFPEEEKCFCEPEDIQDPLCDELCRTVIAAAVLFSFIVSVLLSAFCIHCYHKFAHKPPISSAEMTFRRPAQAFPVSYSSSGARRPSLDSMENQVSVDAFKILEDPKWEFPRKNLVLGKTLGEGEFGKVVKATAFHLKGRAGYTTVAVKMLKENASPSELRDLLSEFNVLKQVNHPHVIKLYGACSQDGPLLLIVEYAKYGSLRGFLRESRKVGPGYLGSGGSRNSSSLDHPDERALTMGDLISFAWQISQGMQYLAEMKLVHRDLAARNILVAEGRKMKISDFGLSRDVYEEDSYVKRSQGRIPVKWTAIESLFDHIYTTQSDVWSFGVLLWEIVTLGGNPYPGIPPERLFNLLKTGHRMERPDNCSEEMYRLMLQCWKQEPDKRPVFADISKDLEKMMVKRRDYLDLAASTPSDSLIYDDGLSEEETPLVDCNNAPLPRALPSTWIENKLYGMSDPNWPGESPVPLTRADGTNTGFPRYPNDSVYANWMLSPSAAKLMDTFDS

SMILES	IC50 [1] [nM]	IC50 [2] [nM]	inhibition of ERK phosphorylation ([3]; 3.7 nM)	inhibition of ERK phosphorylation ([3]; 11.1 nM)	inhibition of ERK phosphorylation ([3]; 33.3 nM)	inhibition of ERK phosphorylation ([3]; 100 nM)	inhibition of ERK phosphorylation ([3]; 300 nM)	inhibition of phosphorylation level of ERK in TT cells [3]	Tumor volume (mean ± SEM) d 0 ([4]; 10 mg/kg oral BID) [mm^3]	Tumor inhibition rate/TGI d 22 ([4]; 10 mg/kg oral BID) [%]	Tumor volume (mean ± SEM) d 22 ([4]; 10 mg/kg oral BID) [mm^3]	Tumor volume (mean ± SEM) d 0 ([4]; 30 mg/kg oral BID) [mm^3]	Tumor inhibition rate/TGI d 22 ([4]; 30 mg/kg oral BID) [%]	Tumor volume (mean ± SEM) d 22 ([4]; 30 mg/kg oral BID) [mm^3]
C#C[C@@](C)(O)COc1cc(-c2ccc(N3CC4CC(C3)N4Cc3ccc(OC)nc3)nc2)c2c(C#N)cnn2c1 [Embodiment 63, 6-(((R)-2-hydroxy-2-methylbut-3-yn-1-yl)oxy)-4-(6-(6-((6-methoxypyridin-3-yl)methyl)-3,6-diazabicyclo[3.1.1]heptan-3-yl)pyridin-3-yl)pyrazolo[1,5-a]pyridine-3-carbonitrile]	0.21	0.85	about half	almost completely inhibited	almost completely inhibited	almost completely inhibited	almost completely inhibited	significantly inhibit						
COc1ccc(CN2C3CC2CN(c2ccc(-c4cc(N5CC(C)(C#N)C5)cn5ncc(C#N)c45)cn2)C3)cn1 [Embodiment 77, 6-(3-Cyano-3-methylazetidin-1-yl)-4-(6-(6-((6-methoxypyridin-3-yl)methyl)-3,6-diazabicyclo[3.1.1]heptan-3-yl)pyridin-3-yl)pyrazolo[1,5-a]pyridine-3-carbonitrile]	0.41	0.98							205.23 ± 16.57	129.77	144.14 ± 8.95			
COc1ncc(CN2C3CC2CN(c2ccc(-c4cc(C#CC(C)(C)O)cn5ncc(C#N)c45)cn2)C3)cc1F [Embodiment 18, 4-(6-(6-((5-Fluoro-6-methoxypyridin-3-yl)methyl)-3,6-diazabicyclo[3.1.1]heptan-3-yl)pyridin-3-yl)-6-(3-hydroxy-3-methylbut-1-yn-1-yl)pyrazolo[1,5-a]pyridine-3-carbonitrile]	0.66											199.73 ± 24.07	99.64	203.56 ± 31.74
C#C[C@](C)(O)COc1cc(-c2ccc(N3CC4CC(C3)N4Cc3ccc(OC)nc3)nc2)c2c(C#N)cnn2c1 [Embodiment 64, 6-(((S)-2-hydroxy-2-methylbut-3-yn-1-yl)oxy)-4-(6-(6-((6-methoxypyridin-3-yl)methyl)-3,6-diazabicyclo[3.1.1]heptan-3-yl)pyridin-3-yl)pyrazolo[1,5-a]pyridine-3-carbonitrile]	0.17	1.74	the inhibition level was weaker	half	the degree of inhibition was reduced	completely inhibit	completely inhibit	significantly inhibit						
